Measured values published in patent US9035133B2, “Herbicide-resistant sunflower plants and methods of use” (priority 2006, dated 2015).

Assays:
Type in all cases: in vivo, Helianthus annuus
RHA266 sunflower plants = experiment: Greenhouse factorial experiment, herbicide damage score (imazamox with or without malathion); settings: 7 days after spraying
Experimental: (§1) FIG. 1 is a graphical representation of the results of a 2×3×2 factorial experiment to the test the effects of sunflower genotype (RHA266 or MUT31), herbicide dose (0, 0.25X, and, 0.50X; where X=50 g a.i./ha imazamox), and malathion (0 or 1000 g a.i./ha). The sunflower plants were at the 3-4 leaf growth stage at time of malathion and herbicide spraying. Malathion was sprayed on the plants 30 minutes prior to the imazamox spraying. The sunflower plants were evaluated at 7 days after herbicide spraying to determine damage scores. Additional details are provided below in Example 3.
(§2) To evaluate the detoxification ability of MUT31 sunflower plants, an experiment was conducted in the greenhouse. The objective of the experiment was to determine if the imazamox tolerance of MUT31 plants is associated with detoxification mechanism that is mediated by a P450 monooxygenase enzyme (referred to herein as “P450 enzyme”). […] Thus, plants comprising enhanced herbicide tolerance that is due to an altered P450 enzyme are expected to become less tolerant or susceptible to the herbicide when malthion is applied to the plants before they are treated with the herbicide.
(§3) A factorial experiment with three factors: genotypes (MUT31 and RHA266), herbicide dose (Control, 0.25X , and 0.50X; where X=50 g ai/ha imazamox) and malathion (with or without malathion) was arranged in a randomized split-split plot block design. Imazamox (SWEEPER) was sprayed at the 3-4 leaf growth stage. The P450 inhibitor malathion was sprayed at a rate of 1000 g ai/ha 30 minutes prior to herbicide spraying.

MUT31 sunflower plants = experiment: as above; settings: 7 days after spraying
Experimental: as §1, §2, §3

[1] = system: sunflower Entry 5, A837 cms × IMI restorer, A205V hetero; experiment: Field trial, phytotoxicity rating (% crop injury); settings: 50 g ai/ha imazamox + 0.25% (v/v) NIS, 21 DAT
Experimental: (§4) A field trial was conducted to compare the herbicide tolerance of sunflower hybrids carrying the MUT31 trait and the A205V mutation in a sunflower AHASL gene (A205V/A205V). A sunflower AHASL gene with the A205V mutation encodes a AHASL protein which has a valine at amino acid that corresponds to amino acid position 205 in the Arabidopsis thaliana AHASL protein. The amino acid at the same position in a wild-type sunflower AHASL protein is alanine. In the amino acid sequence of the sunflower AHASL protein, this alanine-to-valine amino acid substitution is at amino acid position 190. By convention, the sites of amino acid substitutions that are known to give rise to herbicide resistance in plant AHASL proteins are typically referred to by the position of the substitution in the amino acid sequence of the Arabidopsis AHASL protein.
(§5) Seed from each entry was produced under optimum seed production conditions in South America in 2005/2006. The field trial was conducted at one location in North Dakota, USA in 2006. The entries were organized in a randomized complete block using a split plot design consisting of 3 replications for each treatment combination. Factor A was the herbicide treatment, and factor B was the sunflower entry. The plot size was 4 rows×12 ft and the seeding rate was consistent with local agronomic practices. The spray volume was 10 gallons per acre (GPA) (or 100 liters/ha) for a backpack sprayer or 20 GPA (or 200 liters/ha) for a tractor mounted boom. The herbicide treatments were applied at the 2-4 leaf growth stage.
(§6) Phytotoxicity ratings were assessed at 7 days and 21 days following herbicide application. Phytotoxicity was recorded as the amount of plant damage (in percent), where a rating of ‘0’ indicated no damage to the plants in the plot relative to the untreated plot. A rating of ‘100’ indicated complete necrosis (death) of the plants in the plot relative to the untreated plot.
(§7) The data was subjected to an ANOVA analysis and the means from the 3 repetitions are presented in Table 8 (phytotoxicity at 21 days post-treatment).

[2] = system: sunflower Entry 2, IMI cms × IMI restorer, A205V homo; experiment: Field trial, phytotoxicity rating (% crop injury); settings: 21 DAT
Experimental: as §4, §5, §6, §7

[3] = system: sunflower Entry 6, IMI cms × MUT31 restorer, A205V/MUT31 hetero; experiment: Field trial, phytotoxicity rating (% crop injury); settings: 21 DAT
Experimental: as §4, §5, §6, §7

[4] = system: sunflower Entry 1, IMI Restorer, A205V homo; experiment: Field trial, phytotoxicity rating (% crop injury); settings: 21 DAT
Experimental: as §4, §5, §6, §7

[5] = system: sunflower Entry 3, WT × IMI restorer, A205V hetero; experiment: Field trial, phytotoxicity rating (% crop injury); settings: 50 g ai/ha imazamox + 0.25% (v/v) NIS, 21 DAT
Experimental: as §4, §5, §6, §7

[6] = system: sunflower Entry 8, MUT31 Restorer, MUT31 homo; experiment: Field trial, phytotoxicity rating (% crop injury); settings: 21 DAT
Experimental: as §4, §5, §6, §7

MUT31 = experiment: Previous studies (data not shown), crop injury
[7] = 0.25× imazamox (X=50 g ai/ha), malathion 1000 g ai/ha 30 minutes prior
[8] = 0.25× imazamox (X=50 g ai/ha), no malathion
[9] = 0.50× imazamox (X=50 g ai/ha), malathion 1000 g ai/ha 30 minutes prior
[10] = 0.50× imazamox (X=50 g ai/ha), no malathion
[11] = 100 g ai/ha imazamox + 0.25% (v/v) NIS
[12] = 160 g ai/ha imazapyr + 0.25% (v/v) NIS
[13] = herbicide dose 0× (control), malathion 1000 g ai/ha alone
[14] = herbicide dose 0× (control), malathion 1000 g ai/ha alone, listed as Malathion

COCc1cnc(C2=NC(C)(C(C)C)C(=O)N2)c(C(=O)O)c1 (stereo not drawn) [imazamox]
Mean Herbicide Damage Score (RHA266 sunflower plants; [7]): 45.30%
Mean Herbicide Damage Score (RHA266 sunflower plants; [8]): 27.95%
Mean Herbicide Damage Score (RHA266 sunflower plants; [9]): 45.50%
Mean Herbicide Damage Score (RHA266 sunflower plants; [10]): 42.35%
Mean Herbicide Damage Score (MUT31 sunflower plants; [7]): 30.35%
Mean Herbicide Damage Score (MUT31 sunflower plants; [8]): 9.50%
Mean Herbicide Damage Score (MUT31 sunflower plants; [9]): 40.31%
Mean Herbicide Damage Score (MUT31 sunflower plants; [10]): 20.13%
Phytotoxicity Rating (% Crop Injury) [1]: 3.33%
Phytotoxicity Rating (% Crop Injury) [2, 11]: 3.33%
Phytotoxicity Rating (% Crop Injury) ([3]; 50 g ai/ha imazamox + 0.25% (v/v) NIS): 1.67%
Phytotoxicity Rating (% Crop Injury) ([3]; 200 g ai/ha imazamox + 0.25% (v/v) NIS): 43%
Phytotoxicity Rating (% Crop Injury) [4, 11]: 6.67%
Phytotoxicity Rating (% Crop Injury) [5]: 6.67%
Phytotoxicity Rating (% Crop Injury) ([6]; 37.5 g ai/ha imazamox + 0.25% (v/v) NIS): 47%
crop injury (MUT31; 75 g ai of imazamox per hectare): 100%

CC(C)C1(C)N=C(c2ncccc2C(=O)O)NC1=O (stereo not drawn) [imazapyr]
Phytotoxicity Rating (% Crop Injury) [2, 12]: 3.33%
Phytotoxicity Rating (% Crop Injury) [4, 12]: 6.67%
Phytotoxicity Rating (% Crop Injury) ([6]; 80 g ai/ha imazapyr + 0.25% (v/v) NIS): 88.33%
crop injury (MUT31; 100 g ai of imazapyr per hectare): 100%

CCOC(=O)CC(SP(=S)(OC)OC)C(=O)OCC (stereo not drawn) [malathion, diethyl-dimethoxythiophosphorylthio-succinate]
Mean Herbicide Damage Score (RHA266 sunflower plants; [13]): no effect
Mean Herbicide Damage Score (RHA266 sunflower plants; [14]): 0.00%
Mean Herbicide Damage Score (MUT31 sunflower plants; [13]): no effect
Mean Herbicide Damage Score (MUT31 sunflower plants; [14]): 0.00%
